Laboratory results reported in ChEMBL document CHEMBL1201862, “PubChem BioAssay data set” (2004).
Active and inactive are the calls of the source.

Experiments:
[1] = molecular target: Voltage-gated inwardly rectifying potassium channel KCNH2 (Homo sapiens, UniProt Q12809); conditions: Potency;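 also: confirmatory quantitative high-throughput screen measuring inhibition of hERG channel activity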
[2] = microbe, parasite or virus in culture; assay type: functional; conditions: Mycobacterium tuberculosis
[3] = Vero cell cytotoxicity, cytotoxicity control for M. tuberculosis inhibitor project, purified and synthesized samples, set 3 (AID 504684); assay type: functional
[4] = A Cell Based Secondary Assay to Explore Cytotoxicity in THP-1 Cells of Compounds that Modulate Mycobacterium tuberculosis in Media Containing Glycerol versus Media without Glycerol (2).; assay type: functional
[5] = Luminescence Cell-Based Dose Retest to Confirm Inhibitors of Cancer Stem Cells. [Related pubchem assays (depositor defined):AID2717, AID2721]; assay type: functional; conditions: Homo sapiens
[6] = molecular target: T1, Short transient receptor potential channel 4 (Mus musculus, UniProt Q9QUQ5); test: block of DAMGO-driven TRPC4 calcium entry – cell-based, HEK293 TRPC4/mu-opioid, Fluo-4 calcium, dose response (AID 434942); assay type: functional;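 also: potency of inhibitors blocking the TRPC4 calcium response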
T1 sequence (Q9QUQ5 whole entry): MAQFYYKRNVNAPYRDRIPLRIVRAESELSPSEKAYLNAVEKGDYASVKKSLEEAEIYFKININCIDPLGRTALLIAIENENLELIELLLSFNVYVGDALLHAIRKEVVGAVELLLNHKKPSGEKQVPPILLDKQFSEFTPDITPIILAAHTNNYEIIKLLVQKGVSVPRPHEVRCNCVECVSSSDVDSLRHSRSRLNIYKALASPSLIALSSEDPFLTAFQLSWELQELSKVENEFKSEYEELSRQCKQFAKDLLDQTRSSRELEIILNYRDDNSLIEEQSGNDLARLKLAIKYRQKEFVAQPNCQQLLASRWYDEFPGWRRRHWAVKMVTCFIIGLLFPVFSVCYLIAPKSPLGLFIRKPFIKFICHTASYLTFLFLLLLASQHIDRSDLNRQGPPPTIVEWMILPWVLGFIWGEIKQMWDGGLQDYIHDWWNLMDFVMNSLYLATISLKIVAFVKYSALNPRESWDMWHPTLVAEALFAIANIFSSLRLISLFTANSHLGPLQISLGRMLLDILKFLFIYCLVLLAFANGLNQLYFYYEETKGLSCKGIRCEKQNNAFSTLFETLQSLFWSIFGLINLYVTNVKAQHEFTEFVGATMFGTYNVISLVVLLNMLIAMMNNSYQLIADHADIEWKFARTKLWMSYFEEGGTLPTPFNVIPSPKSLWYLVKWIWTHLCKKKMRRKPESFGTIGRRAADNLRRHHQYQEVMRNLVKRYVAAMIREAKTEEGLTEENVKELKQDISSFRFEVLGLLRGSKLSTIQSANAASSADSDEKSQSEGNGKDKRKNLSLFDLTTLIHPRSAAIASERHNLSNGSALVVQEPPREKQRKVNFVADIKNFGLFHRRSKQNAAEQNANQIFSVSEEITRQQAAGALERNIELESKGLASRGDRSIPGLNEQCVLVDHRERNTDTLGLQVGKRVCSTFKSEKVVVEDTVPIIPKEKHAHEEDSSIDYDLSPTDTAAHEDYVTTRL

[7] = A Cell Based Secondary Assay to Explore Cytotoxicity in HepG2 Cells of Compounds that Modulate Mycobacterium tuberculosis in Media Containing Glycerol versus Media without Glycerol (2).; assay type: functional
[8] = molecular target: ATP-dependent molecular chaperone HSP82 (Candida albicans (strain WO-1) (Yeast), UniProt C4YTQ8); test: steroid-induced GRE reporter decrease in yeast – S. cerevisiae, luminescence, Hsp90 inhibitor project, dose response (AID 2400); assay type: functional, cell-based;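 also: beta-galactosidase luminescence from glucocorticoid response element reporter as proxy for Hsp90 function; inhibitor potency where signal loss means Hsp90 inhibition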
[9] = molecular target: Large T antigen (Simian virus 40, UniProt P03070); assay type: functional, Betapolyomavirus macacae;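 also: Confirmatory-stage PubChem screen for compounds that inhibit SV40 T antigen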
[10] = NIH-3T3 fibroblast cytotoxicity, dose response, cytotoxicity control, cell-based, fluorescence, Alamar Blue, secondary assay (AID 2327); assay type: functional;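 also: NIH-3T3 mouse fibroblasts cultured with fluconazole at 8 µg/mL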
[11] = molecular target: Serine/threonine-protein phosphatase (Candida dubliniensis (strain CD36 / CBS 7987 / NCPF 3949 / NRRLY-17841) (Yeast), UniProt B9W6M3); test: blockers of CaCl2-induced CDRE-lacZ signaling – S. cerevisiae, luminescence, secondary, dose response (AID 2388); assay type: functional, cell-based;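 also: yeast reporter cells carrying a calcineurin-responsive lacZ construct stimulated with calcium chloride; luminescent beta-galactosidase reporter signal in whole cells rather than isolated phosphatase activity; potency for inhibition where a drop in reporter signal means calcineurin blockade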
[12] = fluconazole-exposed Candida albicans growth modulators – fluorescence, retest, confirmation (AID 2467); assay type: functional, cell-based
[13] = molecular target: DNA topoisomerase (Yersinia pestis, UniProt A0A2S9PM60); test: Yersinia topoisomerase I cleavage product accumulation – biochemical, cherry-pick, dose response (AID 588525)
[14] = molecular target: T2, Orexin/Hypocretin receptor type 1 (Homo sapiens, UniProt O43613); test: Homogeneous Time Resolved Fluorescence (HTRF)-based cell-based high throughput dose response assay for antagonists of the orexin 1 receptor (OX1R; HCRTR1). [Related pubchem assays (depositor defined):AID434989, AID435008, AID463079, AID485270, AID492963, AID492964, AID492965, AID493232, AID504717, AID504718]; assay type: functional
T2 sequence (O43613 whole entry): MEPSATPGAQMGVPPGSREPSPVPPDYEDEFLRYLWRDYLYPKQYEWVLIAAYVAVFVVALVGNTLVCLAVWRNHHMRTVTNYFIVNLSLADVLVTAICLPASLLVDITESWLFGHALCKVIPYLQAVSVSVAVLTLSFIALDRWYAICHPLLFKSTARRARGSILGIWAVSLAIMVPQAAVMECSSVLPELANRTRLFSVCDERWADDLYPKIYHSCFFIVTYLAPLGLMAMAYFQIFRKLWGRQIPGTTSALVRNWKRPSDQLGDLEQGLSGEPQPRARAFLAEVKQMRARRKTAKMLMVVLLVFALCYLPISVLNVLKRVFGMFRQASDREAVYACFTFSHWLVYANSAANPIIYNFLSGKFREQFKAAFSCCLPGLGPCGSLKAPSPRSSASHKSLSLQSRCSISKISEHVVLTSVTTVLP

[15] = molecular target: T3, Orexin receptor type 2 (Homo sapiens, UniProt O43614); test: Counterscreen assay for antagonists of the orexin 1 receptor (OX1R; HCRTR1): Fluorescence-based cell-based dose response assay for antagonists of the orexin 2 receptor (OX2R; HCRTR2), run by assay provider.; assay type: functional
[16] = molecular target: T2, Orexin/Hypocretin receptor type 1; test: Fluorescence-based cell-based high throughput dose response assay for antagonists of the orexin 1 receptor (OX1R; HCRTR1). [Related pubchem assays (depositor defined):AID434989, AID435008, AID463079, AID485270, AID492963, AID492964, AID492965, AID493232, AID504717, AID504718]; assay type: functional
[17] = molecular target: T3, Orexin receptor type 2; test: Counterscreen assay for antagonists of the orexin 1 receptor (OX1R; HCRTR1): Homogeneous Time Resolved Fluorescence (HTRF)-based cell-based dose response assay for antagonists of the orexin 2 receptor (OX2R; HCRTR2), run by assay provider.; assay type: functional
[18] = tested on: CHO-K1; test: Counterscreen for antagonists of the orexin 1 receptor (OX1R; HCRTR1): Homogeneous time resolved fluorescence (HTRF)-based cell-based dose response assay to identify antagonists of the parental CHO-K1 cell line. [Related pubchem assays (depositor defined):AID434989, AID435008, AID463079, AID485270, AID492963, AID492964, AID492965, AID493232, AID504699, AID504701]; assay type: functional; conditions: Cricetulus griseus;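 also: potency for inhibition of ATP-stimulated IP1 production as antagonists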
[19] = Counterscreen for antagonists of the orexin 1 receptor (OX1R; HCRTR1): Fluorescence-based cell-based high throughput dose response assay to identify antagonists of the parental CHO cell line. [Related pubchem assays (depositor defined):AID434989, AID435008, AID463079, AID485270, AID492963, AID492964, AID492965, AID493232, AID504699, AID504701]; assay type: functional
[20] = molecular target: T4, Endoribonuclease toxin MazF (Escherichia coli K-12, UniProt P0AE70); test: substrate-only fluorescence increase artefacts – biochemical, single-stranded RNase substrate, counter-screen for MazEF activator project, dose response (AID 588502); assay type: functional
[21] = tested on: CHO; test: CHO cell viability loss, potency – luminescence, cytotoxicity control for TLR9-MyD88 binding inhibitor project, dose response (AID 588339); assay type: functional, cell-based, hamster; conditions: Cricetulus griseus;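 also: CHO cells stably coexpressing TLR9 and MyD88 fusions from primary screen; compound exposure lasted 48 hours before viability readout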
[22] = molecular target: T4, Endoribonuclease toxin MazF; test: activation of MazEF endoribonuclease cleavage – biochemical, fluorescence, single-stranded RNA substrate, uHTS hits, dose response (AID 588481); assay type: functional
[23] = molecular target: Beta Lactamase (Pseudomonas aeruginosa, UniProt Q932Y6); test: BLA reporter interference, concentration series – BLA reporter cells, FRET fluorescence, artefact control for TLR9-MyD88 binding inhibitor project, dose response (AID 588341); assay type: cell-based;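 also: cell based assay in CHO-K1 cells stably expressing beta-lactamase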
[24] = molecular target: Luciferin 4-monooxygenase (Photuris pensylvanica, UniProt Q27757); test: inhibition of Cell Titer Glo luciferase signal – biochemical, luminescence, cherry-picks, counter-screen for HSF-1 reporter inhibitor project, dose response (AID 588847)
[25] = tested on: Candida albicans; test: Candida growth reduction in fluconazole presence – CaCi-2 strain, Alamar Blue, dry powder, set 2, antifungal resistance reversal project, dose response (AID 488930); assay type: functional, organism-based
[26] = tested on: Candida albicans; test: C. albicans growth inhibition with fluconazole – CaCi-2 strain, Alamar Blue, dry powder, set 4, dose response (AID 488943); assay type: functional, organism-based
[27] = tested on: Candida albicans; test: fluconazole-resistant Candida strain growth inhibitors – CaCi-8 strain, dry powder, set 4, dose response (AID 488950); assay type: functional, organism-based
[28] = tested on: Candida albicans; test: resistant Candida growth with fluconazole co-treatment – CaCi-8 strain, Alamar Blue, dry powder, set 2, dose response (AID 488909); assay type: functional, organism-based
[29] = molecular target: Glycogen synthase kinase-3 alpha (Homo sapiens, UniProt P49840); test: Inhibition of Human GSK-3 alpha Activity Measured in Biochemical System Using Microfluidics - 2063-06_Inhibitor_Dose_DryPowder_Activity_Set2. [Related pubchem assays (depositor defined):AID2709]
[30] = molecular target: Cyclin-dependent kinase 5/CDK5 activator 1 (Homo sapiens, UniProt Q00535); test: human CDK5 activity blockade – biochemical, microfluidic mobility shift, dry powder, selectivity assay for GSK-3 alpha inhibitor project, dose response (AID 588430)
[31] = molecular target: Glycogen synthase kinase-3 beta (Homo sapiens, UniProt P49841); test: Inhibition of Human GSK-3 beta Activity Measured in Biochemical System Using Microfluidics - 2063-05_Inhibitor_Dose_DryPowder_Activity_Set2. [Related pubchem assays (depositor defined):AID2709]
[32] = tested on: HEK293; test: SAR Analysis of small molecule inhibitors of B-cell specific antigen receptor-induced NF-kB activation in a HEK-293T cell line using a luminescence assay - Set 2. [Related pubchem assays (depositor defined):AID435022, AID435025, AID489021]; assay type: functional, cell-based; conditions: Homo sapiens
[33] = tested on: HEK293; test: HEK293T cell viability loss, resazurin readout – resazurin fluorescence, cytotoxicity control for NF-kB activator project, SAR follow-up (AID 493251); assay type: functional, cell-based; conditions: Homo sapiens
[34] = tested on: Jurkat; test: SAR Analysis of small molecule inhibitors of […] specific antigen receptor-induced NF-kB activation in a Jurkat cell line using a luminescence assay - Set 3. [Related pubchem assays (depositor defined):AID435022, AID435025, AID465]; assay type: functional, cell-based; conditions: Homo sapiens

T4 sequence (P0AE70 whole entry, the tested form may be a part): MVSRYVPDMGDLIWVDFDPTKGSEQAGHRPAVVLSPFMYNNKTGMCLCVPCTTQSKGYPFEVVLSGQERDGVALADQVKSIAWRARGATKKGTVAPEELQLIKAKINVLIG
T3 sequence (O43614 whole entry): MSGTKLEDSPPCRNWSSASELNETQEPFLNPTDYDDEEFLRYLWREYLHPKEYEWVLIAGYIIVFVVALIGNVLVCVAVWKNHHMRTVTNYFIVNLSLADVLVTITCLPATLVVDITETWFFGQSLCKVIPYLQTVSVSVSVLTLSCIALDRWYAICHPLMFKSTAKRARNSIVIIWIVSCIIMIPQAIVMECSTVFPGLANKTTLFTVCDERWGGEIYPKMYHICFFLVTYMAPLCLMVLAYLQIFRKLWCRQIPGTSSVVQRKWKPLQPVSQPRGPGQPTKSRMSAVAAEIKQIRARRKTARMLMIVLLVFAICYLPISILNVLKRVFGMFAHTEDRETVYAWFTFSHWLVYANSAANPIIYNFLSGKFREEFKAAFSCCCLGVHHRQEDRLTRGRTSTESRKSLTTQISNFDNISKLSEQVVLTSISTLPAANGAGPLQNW
Luciferin 4-monooxygenase, sequence (Q27757 whole entry): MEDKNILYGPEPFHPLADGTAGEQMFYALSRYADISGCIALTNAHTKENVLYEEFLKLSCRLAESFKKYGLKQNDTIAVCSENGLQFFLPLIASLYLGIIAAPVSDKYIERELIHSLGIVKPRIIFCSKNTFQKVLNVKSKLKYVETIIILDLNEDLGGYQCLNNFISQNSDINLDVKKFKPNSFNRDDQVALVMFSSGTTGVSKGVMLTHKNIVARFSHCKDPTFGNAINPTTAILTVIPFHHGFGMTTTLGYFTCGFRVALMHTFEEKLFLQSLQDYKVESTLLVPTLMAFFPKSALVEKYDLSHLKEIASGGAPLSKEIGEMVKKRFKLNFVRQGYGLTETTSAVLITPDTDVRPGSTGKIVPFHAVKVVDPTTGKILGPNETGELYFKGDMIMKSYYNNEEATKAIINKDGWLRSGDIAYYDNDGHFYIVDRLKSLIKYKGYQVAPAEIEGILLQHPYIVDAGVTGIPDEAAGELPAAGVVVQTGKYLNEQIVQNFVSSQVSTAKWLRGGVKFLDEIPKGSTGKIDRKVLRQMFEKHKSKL
Voltage-gated inwardly rectifying potassium channel KCNH2, sequence (Q12809 whole entry): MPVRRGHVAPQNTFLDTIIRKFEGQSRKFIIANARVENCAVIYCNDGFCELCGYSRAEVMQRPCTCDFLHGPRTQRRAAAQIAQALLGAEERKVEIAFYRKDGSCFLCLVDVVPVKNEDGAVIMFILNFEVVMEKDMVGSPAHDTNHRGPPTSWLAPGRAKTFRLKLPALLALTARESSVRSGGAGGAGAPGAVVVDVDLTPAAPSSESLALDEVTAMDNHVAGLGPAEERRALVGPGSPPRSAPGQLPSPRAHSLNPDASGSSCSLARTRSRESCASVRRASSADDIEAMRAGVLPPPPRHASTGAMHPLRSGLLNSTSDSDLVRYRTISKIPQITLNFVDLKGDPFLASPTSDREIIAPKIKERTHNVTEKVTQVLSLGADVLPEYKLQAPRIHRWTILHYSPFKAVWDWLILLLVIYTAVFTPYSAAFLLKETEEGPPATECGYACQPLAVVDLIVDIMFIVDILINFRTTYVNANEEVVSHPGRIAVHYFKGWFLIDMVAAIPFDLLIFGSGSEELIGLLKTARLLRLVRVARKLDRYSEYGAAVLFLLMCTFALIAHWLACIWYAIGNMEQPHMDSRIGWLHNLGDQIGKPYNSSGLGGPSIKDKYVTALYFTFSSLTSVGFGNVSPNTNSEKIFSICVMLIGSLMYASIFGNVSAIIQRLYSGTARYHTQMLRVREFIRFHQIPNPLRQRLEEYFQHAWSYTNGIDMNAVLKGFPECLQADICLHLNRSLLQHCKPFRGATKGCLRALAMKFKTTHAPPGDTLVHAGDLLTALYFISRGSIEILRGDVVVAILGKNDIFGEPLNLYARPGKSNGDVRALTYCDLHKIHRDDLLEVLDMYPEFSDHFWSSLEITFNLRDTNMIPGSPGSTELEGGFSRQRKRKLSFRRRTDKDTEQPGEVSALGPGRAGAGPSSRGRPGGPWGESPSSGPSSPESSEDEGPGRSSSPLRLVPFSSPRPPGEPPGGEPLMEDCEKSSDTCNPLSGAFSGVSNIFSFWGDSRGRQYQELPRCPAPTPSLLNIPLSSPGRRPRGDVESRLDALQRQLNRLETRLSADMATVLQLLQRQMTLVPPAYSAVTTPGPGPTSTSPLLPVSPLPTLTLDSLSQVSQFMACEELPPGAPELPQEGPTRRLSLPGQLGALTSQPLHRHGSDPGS
Serine/threonine-protein phosphatase, sequence (B9W6M3 whole entry): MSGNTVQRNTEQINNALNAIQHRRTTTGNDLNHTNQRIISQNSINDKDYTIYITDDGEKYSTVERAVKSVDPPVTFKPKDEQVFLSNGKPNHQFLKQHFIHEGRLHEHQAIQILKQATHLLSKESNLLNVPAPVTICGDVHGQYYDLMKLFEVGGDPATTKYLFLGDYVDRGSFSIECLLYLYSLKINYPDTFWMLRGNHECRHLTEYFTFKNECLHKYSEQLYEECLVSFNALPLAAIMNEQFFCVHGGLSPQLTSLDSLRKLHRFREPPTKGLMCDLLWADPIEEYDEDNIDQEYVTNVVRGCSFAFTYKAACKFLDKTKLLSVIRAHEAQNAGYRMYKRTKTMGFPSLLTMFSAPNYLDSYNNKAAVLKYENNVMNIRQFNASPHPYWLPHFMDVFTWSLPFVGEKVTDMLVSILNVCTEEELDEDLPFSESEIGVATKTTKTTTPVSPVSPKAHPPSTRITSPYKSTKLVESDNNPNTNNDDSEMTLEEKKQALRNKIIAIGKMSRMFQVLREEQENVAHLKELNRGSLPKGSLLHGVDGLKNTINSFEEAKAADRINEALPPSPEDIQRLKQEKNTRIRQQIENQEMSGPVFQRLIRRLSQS
DNA topoisomerase, sequence (A0A2S9PM60 whole entry): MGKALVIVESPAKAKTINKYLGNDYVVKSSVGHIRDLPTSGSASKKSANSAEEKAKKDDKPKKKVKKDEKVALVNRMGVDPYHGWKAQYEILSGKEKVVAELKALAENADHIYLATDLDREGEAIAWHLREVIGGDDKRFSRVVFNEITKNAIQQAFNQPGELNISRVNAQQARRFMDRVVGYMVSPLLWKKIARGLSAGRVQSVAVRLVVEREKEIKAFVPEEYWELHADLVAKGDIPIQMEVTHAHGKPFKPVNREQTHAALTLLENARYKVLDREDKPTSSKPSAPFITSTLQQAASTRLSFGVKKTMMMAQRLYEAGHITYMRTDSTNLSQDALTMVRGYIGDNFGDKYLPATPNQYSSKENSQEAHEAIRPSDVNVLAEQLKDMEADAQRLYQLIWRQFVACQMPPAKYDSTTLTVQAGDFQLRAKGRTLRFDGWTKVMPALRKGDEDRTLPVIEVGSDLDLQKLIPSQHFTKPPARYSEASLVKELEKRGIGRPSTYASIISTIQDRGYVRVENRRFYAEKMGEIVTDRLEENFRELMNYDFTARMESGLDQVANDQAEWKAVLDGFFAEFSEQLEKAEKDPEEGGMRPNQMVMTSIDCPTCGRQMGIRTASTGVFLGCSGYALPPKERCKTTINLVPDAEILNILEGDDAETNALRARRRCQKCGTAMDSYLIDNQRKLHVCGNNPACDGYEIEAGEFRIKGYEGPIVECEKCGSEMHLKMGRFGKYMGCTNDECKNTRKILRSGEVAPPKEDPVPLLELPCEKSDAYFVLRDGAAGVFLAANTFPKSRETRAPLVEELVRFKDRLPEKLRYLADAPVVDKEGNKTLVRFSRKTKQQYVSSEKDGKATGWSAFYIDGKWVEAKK
Glycogen synthase kinase-3 beta, sequence (P49841 whole entry): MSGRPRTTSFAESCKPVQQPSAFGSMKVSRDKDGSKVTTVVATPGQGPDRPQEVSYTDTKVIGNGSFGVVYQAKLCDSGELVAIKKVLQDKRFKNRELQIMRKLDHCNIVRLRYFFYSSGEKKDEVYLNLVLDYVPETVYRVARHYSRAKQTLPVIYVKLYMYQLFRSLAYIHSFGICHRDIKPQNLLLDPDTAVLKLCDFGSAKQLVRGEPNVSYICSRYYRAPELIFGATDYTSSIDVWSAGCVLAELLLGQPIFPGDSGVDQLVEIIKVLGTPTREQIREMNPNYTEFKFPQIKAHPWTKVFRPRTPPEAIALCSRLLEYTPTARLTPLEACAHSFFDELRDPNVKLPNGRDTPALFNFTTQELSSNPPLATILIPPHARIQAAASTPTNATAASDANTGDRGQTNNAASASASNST
Large T antigen, sequence (P03070 whole entry): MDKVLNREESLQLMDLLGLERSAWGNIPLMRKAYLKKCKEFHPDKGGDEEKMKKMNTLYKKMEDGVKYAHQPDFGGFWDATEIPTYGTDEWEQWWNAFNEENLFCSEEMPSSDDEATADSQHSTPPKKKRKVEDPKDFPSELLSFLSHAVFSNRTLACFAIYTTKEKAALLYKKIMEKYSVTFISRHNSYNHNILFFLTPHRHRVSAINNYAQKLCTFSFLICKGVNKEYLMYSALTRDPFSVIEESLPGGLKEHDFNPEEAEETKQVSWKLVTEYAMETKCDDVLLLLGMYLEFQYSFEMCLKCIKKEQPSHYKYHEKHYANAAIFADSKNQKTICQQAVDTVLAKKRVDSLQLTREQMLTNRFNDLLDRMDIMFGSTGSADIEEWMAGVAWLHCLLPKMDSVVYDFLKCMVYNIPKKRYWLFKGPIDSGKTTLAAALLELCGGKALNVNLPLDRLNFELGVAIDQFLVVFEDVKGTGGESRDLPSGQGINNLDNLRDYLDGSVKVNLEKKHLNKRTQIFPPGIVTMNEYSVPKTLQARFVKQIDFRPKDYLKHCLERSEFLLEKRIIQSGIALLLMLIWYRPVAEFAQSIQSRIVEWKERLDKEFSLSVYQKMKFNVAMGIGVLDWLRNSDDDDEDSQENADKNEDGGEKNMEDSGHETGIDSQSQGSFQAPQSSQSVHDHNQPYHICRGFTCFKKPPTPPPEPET

COc1ccccc1N1CCN(CCN(C(=O)C2CCCCC2)c2ccccn2)CC1
AC50 [1]: 31.6 µM (inconclusive)

CNc1nc(SCc2ccccc2Cl)nc2c1CCCC2
CC50 [2]: 9.68 µM (active) | CC50 [3]: 25.6 µM (active) | CC50 [4]: 49.2 µM (active) | AC50 [5]: 8.66 µM (active) | EC50 [6]: 4.73 µM (active) | CC50 [7]: 36.2 µM (active)

O=Nc1c(-c2cccc([N+](=O)[O-])c2)nc2ncccn12
EC50 [8]: 0.826 µM (active) | IC50 [9]: 32.5 µM (active) | EC50 [10]: > 160 µM (inconclusive) | EC50 [11]: 0.828 µM (active) | EC50 [12]: 1.11 µM (active)

Cc1ccc(S(=O)(=O)N=C(N)Nc2nc(C)c3cc(C)ccc3n2)cc1
AC50 [13]: 14.2 µM (active)

O=[N+]([O-])c1c(O)nc2ccc(Cl)cc2c1-c1ccccc1
IC50 [14]: 0.915 µM (active) | IC50 [15]: > 88.8 µM (inactive) | IC50 [16]: > 49.8 µM (inactive) | IC50 [17]: 1.5 µM (active) | IC50 [18]: > 66.2 µM (inactive) | IC50 [19]: > 49.8 µM (inactive)

COc1ccc(OC)c(/C=C/c2nc3ccccc3nc2O)c1
EC50 [20]: > 99 µM (inactive) | IC50 [21]: 28.4 µM (inactive) | EC50 [22]: > 99 µM (inactive) | IC50 [23]: 8.5 µM (active)

CC12CCC(=O)C=C1CCC1C2C(O)CC2(C)C1CCC2(O)C(=O)CO (centres undefined)
AC50 [24]: > 52 µM (inactive)

O=C(C1CCCC1)N1CCN(c2ccnc3cc(Cl)ccc23)CC1
AC50 [25]: 0.566 µM (active) | AC50 [26]: 2.08 µM (active) | AC50 [27]: 1.71 µM (active) | AC50 [28]: 2.01 µM (active)

COc1cc(/C=N/Nc2ccc([N+](=O)[O-])cn2)cc(OC)c1O
AC50 [29]: 0.367 µM (active) | AC50 [30]: 1.55 µM (active) | AC50 [31]: 0.095 µM (active)

CCOCCCNC(=O)CSCc1nc(-c2ccc(OCC)cc2)oc1C
IC50 [32]: > 80 µM (inactive) | IC50 [33]: > 80 µM (inactive) | IC50 [34]: 51.9 µM (inactive)
